# Reference: US20100173865A1, “Anti-Cancer Agent-Hyaluronic Acid Conjugate Compositions and Methods” (priority 2007, published 2010)
# pIC50: −log10 of the molar value.
# How the values were obtained:
# [1] = tested on: OSC19-luciferase xenografts; assay: Orthotopic nude mouse model of oral tongue SCC, OSC19-luciferase; format: in vivo, nude mice
# HN5 xenografts = assay: Orthotopic nude mouse model of oral tongue SCC, HN5; format: in vivo, nude mice
# [2] = tested on: CD31/PECAM (microvessel density); assay: Microvessel density by CD31 staining of tumor sections; format: in vivo, nude mice; settings: weekly i.v. injections
# Experimental: Frozen tissues were sectioned into 8- to 10-μm slices and used for detection of CD31/platelet/endothelial cell adhesion molecule 1 (CD31/PECAM). The slices were mounted on positively charged Plus slides (Fisher Scientific, Pittsburgh, Pa.) and air-dried for 30 minutes; fixed sequentially in cold acetone (5 minutes), 1:1 acetone/chloroform (v/v; 5 minutes), and acetone (5 minutes), and then washed with PBS. Immunohistochemical procedures were done as described previously with the primary antibody diluted 1:400. Peroxidase-conjugated secondary antibody was used for immunohistochemical analysis of CD31/PECAM. Bleaching of fluorescence was minimized by covering the slides with 90% glycerol and 10% PBS. The slides were incubated with stable 3,3′-diaminobenzidine for 10 to 20 minutes and then examined for the presence of CD31/PECAM. The sections were rinsed with distilled water, counterstained with Gill's hematoxylin for 1 minute, and mounted with Universal Mount (Research Genetics, Huntsville, Ala.).
# To quantify microvessel density (MVD), areas containing higher numbers of tumor-associated blood vessels were identified at low microscopic power (100×). Vessels completely stained with anti-CD31 antibodies were counted in three random 0.04-mm^2 fields per slide at 200× magnification.
# NMP-1 xenografts = assay: NMP-1 orthotopic (intraperitoneal) ovarian carcinoma xenograft, survival and MR imaging; format: in vivo, nude mice; settings: for T/C / Mean Day of Survival/Sacrifice: qd7 × 3 i.p. from Day 7; for Mean Day of Survival/Sacrifice: mean ± SEM
# Experimental: On Day 0, about 1×10^7 viable NMP-1 cells were injected into the peritoneal cavities of groups of 6 to 9-week-old female nude mice (Harlan Sprague Dawley, Indianapolis, Ind.). Five or more mice per experimental group were used as the basis for statistical analyses. Administration of drugs was initiated 1 week later (Day 7). […] NMP-1-implanted mice develop marked ascites as one of the earliest clinical signs of peritoneal tumor and before other aspects of tumor progression are apparent; ascitic fluid was repeatedly removed at intervals from mice, beginning around the fourth week. […] For any tumor-bearing mice that succumbed between daily observations and before the opportunity to sacrifice them, the day of death was considered to be the day before the date they were discovered as deceased. The day of humane sacrifice/death was recorded for each mouse, and these values were compared among control and treatment groups by paired or unpaired Student's t-tests for the survival analyses.
# MRI studies were conducted in the MDACC Small Animal Imaging Facility (SAIF). […] Klostergaard, J., et al., Magnetic Resonance Imaging-Based Prospective Detection of Intraperitoneal Human Ovarian Carcinoma Xenografts Treatment Response, Int J Gynecol Cancer, 2006, 16 Suppl 1:111-7. Respiratory-gated, T2-weighted (TE: 45.0 ms, TR: 1215.6 ms, 0.5 mm thickness, 0.3 mm space between images) coronal images were used for initial evaluation of tumor distribution and growth in these models; images of the abdomens of these mice were acquired using a Bruker 4.7 T, 40 cm Biospec MR scanner (Bruker Biospin USA, Billerica, Mass.).
# In the NMP-1 studies, mice were held for survival endpoints. In the SKOV-3ip studies, tumor measurements were performed using the Image J program (National Institutes of Health, USA). Regions of interest (ROI) were drawn on each image that contained tumor and then multiplied by slice thickness to obtain the tumor volume. […] To avoid overestimation of tumor size, one half of the volume from the most dorsal and ventral images containing tumor were used in the volume analysis. Assuming a tumor density of 1 g/ml, tumor volumes (mm^3) were converted to weight (g) for analysis.
# [3] = plasma; IP administration; data from Banzato et al.; cited from earlier work
# HN5 cell line = assay: MTT cell proliferation assay; format: cell-based; settings: Homo sapiens, 72 h, 3-day incubation, read-out: IC50 (growth inhibition, MTT)
# Experimental: (§1) To test the ability of paclitaxel and HA-paclitaxel to inhibit the proliferation of all human squamous cancer cell lines in vitro, a 3-(4,5-dimethylthiazol-2-yl)-2,5-diphenyltetrazolium bromide (MTT) assay was used. Two thousand cells per well were grown in DMEM medium supplemented with 10% FBS in 96-well tissue culture plates. After 24 h, the cells were treated with various concentrations of paclitaxel or HA-paclitaxel in DMEM medium supplemented with 2% FBS. To measure the number of metabolically active cells after a 3-day incubation period, an MTT assay as measured by a 96-well microtiter plate reader (MR-5000; Dynatech Laboratories Inc, Chantilly, Va.) at an optical density of 570 nm was used.
# (§2) Quantified results of PCNA, CD31, and tumor volume were compared with Kruskal-Wallis and Wilcoxon rank-sum test, as appropriate. Survival was analyzed with the Kaplan-Meier method. Differences between the treatment and control groups were compared with the log-rank test. A two-tailed p<0.05 was considered significant.
# [4] = tested on: OSC19-luciferase cell line; assay: MTT cell proliferation assay; format: cell-based; settings: Homo sapiens, 72 h, 3-day incubation, read-out: IC50 (growth inhibition, MTT)
# Experimental: as §1, §2
compound,measurement,setting,value
"CC(=O)O[C@H]1C(=O)[C@@]2(C)[C@H]([C@H](OC(=O)c3ccccc3)[C@]3(O)C[C@H](OC(=O)[C@H](O)[C@@H](NC(=O)c4ccccc4)c4ccccc4)C(C)=C1C3(C)C)[C@]1(OC(C)=O)CO[C@@H]1C[C@@H]2O [Taxol, Paclitaxel]",Median survival time,"[1]; OSC19-luciferase, 3 weekly i.v. injections, control 30 days",60 days
same,Reduction of bioluminescence as opposed to control,"[1]; OSC19-luciferase, one week after the last treatment",86.5%
same,Reduction of tumor growth,"[1]; OSC19, one week after the last of 3 weekly i.v. treatments, HA-paclitaxel 120 mg/kg paclitaxel equivalent, paclitaxel 10 mg/kg",64.2%
same,Median survival time,"HN5 xenografts; 3 weekly i.v. injections, control 26 days",40 days
same,Reduction of tumor growth,"HN5 xenografts; one week after the last of 3 weekly i.v. treatments, HA-paclitaxel 120 mg/kg paclitaxel equivalent, paclitaxel 10 mg/kg",63.8%
same,Effect on microvessel density (MVD),[2],no effect on MVD
same,T/C,NMP-1 xenografts; 10 mg/kg,~105
same,Mean Day of Survival/Sacrifice,NMP-1 xenografts; 10 mg/kg,32.6 ± 5.6 days
same,T/C,NMP-1 xenografts; 15 mg/kg,~120
same,Mean Day of Survival/Sacrifice,NMP-1 xenografts; 15 mg/kg,37.6 ± 9.3 days
same,Activity by MR imaging and survival criteria,"NMP-1 xenografts; multiple-dose regimens, 10 or 15 mg/kg",essentially inactive
same,AUC,[3],144 µg·h/mL
same,pIC50,HN5 cell line,8.34
same,pIC50,[4],8.67
